The numbers were not newly measured in the CATMoS acute toxicity set (Mansouri et al. 2021), which cites them from elsewhere.

The structures appear in SMILES notation. Several values for one entry are separate records, joined by “and”; a condition that tells them apart may be missing. Equal values may be shown once.

This data set is described as follows: rat acute oral toxicity. To be noted: in vivo.
Broadly, the LD50 is the dose expected to kill half of the subjects tested. With `O=C(O)C1=Cc2sc(Cn3ccnc3)cc2CC1`, the LD50 was 1880 mg/kg.
Take `C=CCN(CC=C)c1ccc(OC(=O)NC)cc1`: the LD50 was 86.8 mg/kg.
Regarding `CNc1ccc(C(O)(c2ccc(N(C)C)cc2)c2ccc(N(C)C)cc2)cc1`, the LD50 is 500 mg/kg.
`CC(=O)OC1CC2(O)C(CCC3(C)C(c4ccc(=O)oc4)CCC32O)C2(C)CCC(O)C=C12` (stereo not drawn): the LD50 is 4.2 mg/kg.
For the compound `O=C1c2c(O)ccc(O)c2C(=O)c2c(NCCNCCO)ccc(NCCNCCO)c21`, the LD50 was 682 mg/kg.
For `CCCCCCCCCCCCCCCCCCOP(=O)([O-])OCC[N+]1(C)CCCCC1`, the LD50 is 631 mg/kg.
With `O=C(O)c1ccc2c3c(ccc(C(=O)O)c13)C(=O)OC2=O`, the LD50 was 3510 mg/kg.
Turning to `CCN1CC(CC(N)=O)CC2c3cccc4[nH]cc(c34)CC21` (stereo not drawn), the LD50 was 38.5 mg/kg.
As to `Clc1ccc(N=Nc2ccc(NCCCN3CCCCC3)c3c2CCCC3)cc1`, the LD50 was 1120 mg/kg.
As to `C=C1C(=O)O[C@@H]2C[C@@H](C)[C@@H]3C=CC(=O)[C@@]3(C)[C@@H](O)[C@H]12`, the LD50 was 125 mg/kg.
With `O=C(Cc1ccccc1)OC1=C(OC(=O)Cc2ccccc2)C(=O)OC1=O`, the LD50 was 8000 mg/kg.
Regarding `FC(F)(F)C(=NOCC1OCCO1)c1ccc(Cl)cc1`, the LD50 was 669 mg/kg.
Take `CCN(CC)C(=O)c1ccc(O)c(OC)c1`: the LD50 is 154 mg/kg.
Turning to `CN1C(=O)c2ccc([N+](=O)[O-])cc2C1=O`, the LD50 is 2800 mg/kg.
For `CCCSP(=O)(OCC)Oc1cnn(-c2ccc(Cl)cc2)c1` (stereo not drawn), the LD50 was 237 mg/kg.
For the compound `CCCC(CCC)C(C)NC(=O)CC` (stereo not drawn), the LD50 was 700 mg/kg.
On to `O=NN(CCCl)C(=O)NCCCl`, for which the LD50 is 20 mg/kg.
In the case of `C=C(CC)C(=O)c1ccc(OCC(=O)O)c(Cl)c1Cl`, the LD50 is 1000 mg/kg.
As to `Cc1cc(-c2ccc(N=Nc3c(S(=O)(=O)O)cc4cc(S(=O)(=O)O)cc(N)c4c3O)c(C)c2)ccc1N=Nc1c(S(=O)(=O)O)cc2cc(S(=O)(=O)O)cc(N)c2c1O`, the LD50 was 6200 mg/kg.
Consider `CN(C(=O)c1cc(C(F)(F)F)cc(C(F)(F)F)c1)c1nc(C(F)(F)F)c(Cl)s1`, for which the LD50 is 501 mg/kg.
Regarding `C=C(C)C1CC=C(CO)CC1` (stereo not drawn), the LD50 is 2100 mg/kg.
Regarding `C#CCOC(=O)/C=C(C)/C=C/CC(C)CCCC(C)C` (stereo not drawn), the median lethal dose (LD50) is 4900 mg/kg.
For `O=[N+]([O-])c1cc([N+](=O)[O-])c2nc(C(F)(F)F)[nH]c2c1`, the LD50 was 11.5 mg/kg.
On to `COc1ccccc1C1=CCN(CC=Cc2ccc3c(c2)CCC(=O)N3)CC1`, for which the LD50 was 500 mg/kg.
`Cc1cccnc1N`: the LD50 was 100 mg/kg.
Turning to `O=[N+]([O-])c1cc(Cl)c(N=Nc2ccc(N3CCS(=O)(=O)CC3)cc2)c(Cl)c1`, the LD50 was 3200 mg/kg.
Regarding `C[C@H]1C(=O)O[C@@H]2CCN3CC=C(COC(=O)[C@](C)(O)[C@]1(C)O)[C@H]23`, the LD50 was 66 mg/kg.
Consider `CN(C)CCC(c1ccc(Br)cc1)c1ccccn1` (stereo not drawn), for which the LD50 is 318 mg/kg.
As for `CCc1c2c(nc3ccc(OC(=O)N4CCC(N5CCCCC5)CC4)cc13)-c1cc3c(c(=O)n1C2)COC(=O)C3(O)CC` (stereo not drawn), the LD50 was 867 mg/kg.
Turning to `Cc1cc2c(cc1C)C(=O)c1n[nH]nc1C2=O`, the LD50 was 980 mg/kg.
On to `CCOc1ccc(C(CN(C)C)C(C)CC)cc1Cl` (stereo not drawn), for which the LD50 is 451 mg/kg.
For `O=C(c1ccc(Cl)cc1)n1cc(Cc2nn[nH]n2)c2ccccc21`, the LD50 is 1200 mg/kg.
Consider `Nc1ccc(N=Nc2ccc(O)cc2)cc1`, for which the LD50 was 1950 mg/kg.
Take `N#Cc1ccc2nc(C(F)(F)F)[nH]c2c1`: the LD50 is 4.41 mg/kg.
For the compound `O=C(O)C1=CCCN(CCOC(c2ccc(C(F)(F)F)cc2)c2ccc(C(F)(F)F)cc2)C1`, the LD50 was 894 mg/kg.
As to `Nc1nc2cc(Cl)c(O)cc2o1`, the median lethal dose (LD50) was 1070 mg/kg.
For `CC(C)(CNc1ccc(N=O)cc1)[N+](=O)[O-]`, the LD50 is 2730 mg/kg.
As to `N#CC1(O)CCCCC1`, the 50% lethal dose (LD50) is 10 mg/kg.
`COP(=S)(OC)SCCSC`: the LD50 is 75 mg/kg.
For the compound `NCCN(CCN)CCN`, the LD50 was 246 mg/kg.
For `CN(CCCCCCN(C)C(=O)Oc1ccc[n+](C)c1)C(=O)Oc1ccc[n+](C)c1`, the LD50 is 10 mg/kg.
With `CN(C)/N=N/c1ccc(C(N)=O)cc1`, the LD50 is 54 mg/kg.
`CCCCN(N=O)c1ccc(N(CCCC)N=O)cc1`: the LD50 was 2600 mg/kg.
For `CCCCCCCCCCCCCCCC[N+](C)(C)C`, the LD50 was 410 mg/kg.
Regarding `Cc1cc(C(C)(C)C)c(O)c(C)c1CC1=NCCN1`, the LD50 is 0.8 mg/kg and 0.68 mg/kg.
On to `CC(=O)OCCCC(=O)CBr`, for which the LD50 is 600 mg/kg.
For `CCCCNC1(P(=O)(OCCCC)OCCCC)CCCCC1`, the LD50 is 3000 mg/kg.
As to `Nc1nncs1`, the LD50 was 253 mg/kg.
For the compound `O=C1CC(=O)N(c2ccccc2)N1c1ccccc1`, the LD50 is 1000 mg/kg.
Take `CCOP(=S)(OCC)SCN1C(=O)c2ccccc2C1=O`: the LD50 is 43 mg/kg.
Consider `COCC(=O)NP(=O)(OC)SC` (stereo not drawn), for which the LD50 was 200 mg/kg.
Take `Fc1c(Cl)c(Cl)c2nc(C(F)(F)F)[nH]c2c1Cl`: the LD50 is 2.39 mg/kg.
As for `CCN(CC)c1cccc(S(=O)(=O)O)c1`, the LD50 was 7470 mg/kg.
As to `CC(=O)Nc1cccc2c3ccccc3n(C)c12`, the LD50 was 3120 mg/kg.
As to `O=C(O)CCc1nc(-c2ccccc2)c(-c2ccccc2)o1`, the LD50 is 4470 mg/kg.
In the case of `CCN(CC)N=Nc1cccnc1`, the LD50 was 210 mg/kg.
For the compound `CCS(=O)(=O)CCSP(=O)(OC)OC`, the LD50 is 32.4 mg/kg.
With `CCN(CC)c1ccc(C=O)cc1`, the LD50 was 6400 mg/kg.
In the case of `CC(=O)c1cccc(Oc2ccccc2)c1`, the 50% lethal dose (LD50) was 4160 mg/kg.
For `CC(C)(N)Cc1ccccc1Cl`, the LD50 is 332 mg/kg.
Turning to `C#CCN1CCC2=C(C1)c1c(OC(=O)CCCN3CCCCC3)cc(C(C)C(C)CCCCC)cc1OC2(C)C` (stereo not drawn), the LD50 was 130 mg/kg.
Turning to `COc1cc(N)c(C)cc1N(C)C`, the LD50 was 29.7 mg/kg.
On to `CCOP(=O)(OCC)Sc1ccc([N+](=O)[O-])cc1`, for which the LD50 is 4.41 mg/kg.
Regarding `CCOP(=S)(OCC)Oc1cc(C)n(C)c(=O)c1`, the LD50 is 5.97 mg/kg.
Take `CC(=O)OCC(COc1ccccc1)OC(C)=O` (stereo not drawn): the LD50 was 5250 mg/kg.
As for `Cc1cc(N)n(-c2ccccc2)n1`, the LD50 is 2500 mg/kg.
Turning to `CCCCC(CC)COC(=O)CCCCCCCCCCC(=O)OCC(CC)CCCC` (stereo not drawn), the LD50 is 21500 mg/kg.
As to `CCCC(=O)c1ccc2c(c1)N(CCCN1CCN(C)CC1)c1ccccc1S2`, the LD50 is 413 mg/kg.
Consider `CCOP(=O)(OC=C(Cl)Cl)OCC`, for which the median lethal dose (LD50) was 2.5 mg/kg.
In the case of `NS(=O)(=O)c1cc2c(cc1Cl)N=CNS2(=O)=O`, the LD50 is 10000 mg/kg.
In the case of `CCCCCCOc1ccc(NNC=O)cc1`, the LD50 was 717 mg/kg.
Turning to `CCOc1ccccc1N1CCN(C(=O)CCC2CCCCC2)CC1`, the LD50 is 2420 mg/kg.
On to `CCOP(=O)(OCC)Oc1ccc2ccc(=O)oc2c1`, for which the LD50 was 29 mg/kg.
As for `CN1CCC(=C2c3ccccc3Oc3ccc(Cl)cc32)CC1`, the LD50 is 319 mg/kg.
As for `CC(C(=O)O)c1ccc(-c2ccccc2F)cc1` (stereo not drawn), the LD50 is 337 mg/kg.
For the compound `C=Cc1ccc(C)nc1`, the LD50 was 1170 mg/kg.
On to `CSc1nc(N=[N+]=[N-])nc(NC(C)C)n1`, for which the LD50 is 3600 mg/kg.
With `C[Si](C)(C)CC(=O)O`, the LD50 was 3000 mg/kg.
`CC[N+](CC)(CC)CCO`: the LD50 was 1000 mg/kg.
Regarding `S=C(NC1CCCCC1)NC1CCCCC1`, the LD50 is 500 mg/kg.
Consider `N#CCCSCCC#N`, for which the LD50 is 4210 mg/kg.
Consider `Cc1cc(=O)nc(SCc2ccccc2N(C)C)[nH]1`, for which the LD50 was 2400 mg/kg.
`CCOP(=S)(CCl)Oc1ccc([N+](=O)[O-])cc1` (stereo not drawn): the LD50 was 127 mg/kg.
Regarding `Oc1ccc2ccccc2c1`, the LD50 is 1960 mg/kg and 2120 mg/kg.
For `CCCC[C@H](C)[C@H](O)C#C[C@H]1CCC(=O)[C@@H]1CC=CCCCC(=O)OC`, the LD50 was 338 mg/kg.
For `CCOP(=O)(OCC)OC(=C(Br)Br)c1ccc(Cl)cc1Cl`, the 50% lethal dose (LD50) is 78.1 mg/kg.
With `CC(C)(CO)S(C)(=O)=O`, the LD50 is 11300 mg/kg.
As for `CC[C@H]1[C@@H]2C[C@H]3[C@@H]4N(C)c5ccccc5[C@]45C[C@@H](C2[C@H]5O)N3[C@@H]1O` (stereo partly drawn), the LD50 was 360 mg/kg.
`CCOP(=S)(OCC)SC1CCOC1=O` (stereo not drawn): the LD50 was 1000 mg/kg.
As for `Cl/C=C/C[N+]12CN3CN(CN(C3)C1)C2`, the LD50 was 500 mg/kg.
As to `COP(=S)(OC)SCN1C(=O)CCC1=O`, the LD50 was 7 mg/kg.
Regarding `CC[P+](c1ccccc1)(c1ccccc1)c1ccccc1`, the LD50 was 200 mg/kg and 79 mg/kg.
For `C=CCN1CC[C@]23c4c5ccc(O)c4O[C@H]2[C@@H](O)C=C[C@H]3[C@H]1C5`, the LD50 is 1150 mg/kg.
Turning to `CC(O)C1CCCCC1` (stereo not drawn), the LD50 was 2100 mg/kg.
With `CNC(N)=S`, the LD50 is 50 mg/kg.
Consider `O=C1CCc2cc(C(=O)CCN3CCN(c4cccc(Cl)c4)CC3)ccc2N1`, for which the LD50 is 500 mg/kg.
For `NCCCC1(CCCN)c2ccccc2-c2ccccc21`, the LD50 was 620 mg/kg.
For the compound `CCCN=C(N)C(OCC)c1ccccc1` (stereo not drawn), the LD50 was 530 mg/kg.
Regarding `CCCCOCCOCCOC(=O)CCCCC(=O)OCCOCCOCCCC`, the LD50 is 6000 mg/kg.
As to `CCN(CC)CCNC(=O)c1cc(Cl)c(N)cc1OCc1ccccc1`, the LD50 is 220 mg/kg.
Regarding `NCCC=C1c2ccccc2COc2ccccc21`, the LD50 was 960 mg/kg.
On to `NC(N)=O`, for which the LD50 is 350 mg/kg.
For the compound `N#Cc1ccccc1CN1CCc2sccc2C1`, the LD50 was 228 mg/kg.
On to `Cc1ccc(CO)cc1`, for which the LD50 is 3900 mg/kg.
For `Cc1nccnc1SCc1ccco1`, the LD50 was 1000 mg/kg.
With `Oc1cccc(Cl)c1-c1ccccc1`, the LD50 is 3500 mg/kg.
Turning to `CC(=O)Oc1ccc(C2(c3ccc(OC(C)=O)cc3)Oc3ccccc3NC2=O)cc1`, the LD50 was 8000 mg/kg.
With `Cc1c(Cl)cccc1Nc1ncccc1C(=O)O`, the LD50 is 335 mg/kg.
Take `CCCCON=O`: the LD50 was 83 mg/kg.
As to `COc1cc(C2c3cc4c(cc3C(OC3OC5COC(c6ccccc6)OC5C(O)C3O)C3COC(=O)C23)OCO4)cc(OC)c1O` (stereo not drawn), the LD50 was 823 mg/kg.
For the compound `O=[N+]([O-])c1cnc(Cl)c([N+](=O)[O-])c1`, the LD50 is 50 mg/kg.
For the compound `OCCN1CCCN(CCCN2c3ccccc3C=Cc3ccccc32)CC1`, the LD50 was 2410 mg/kg.
With `CN(C)C(CSS(=O)(=O)c1ccccc1)CSS(=O)(=O)c1ccccc1`, the LD50 was 1100 mg/kg.
On to `O=S(=O)(O)c1c(O)ccc2ccccc12`, for which the LD50 was 3170 mg/kg.
Consider `CN(N=O)c1ccccn1`, for which the LD50 was 60 mg/kg.
Consider `COC(OC)C(C)c1ccccc1` (stereo not drawn), for which the LD50 was 1850 mg/kg.
`CC(Br)CBr` (stereo not drawn): the LD50 was 741 mg/kg.
On to `OC1(c2cccc(Cl)c2)c2ccccc2C2=NCCN21` (stereo not drawn), for which the LD50 is 200 mg/kg.
